{"source": "patent US7396850B2", "about": "“Pyrazole derivative as PPAR modulator” (Eli Lilly and Company, priority 2003, dated 2008)", "key": {"[1]": {"target": "T1, PPARα (Homo sapiens, UniProt Q07869)", "T1 sequence (Q07869 201-468 limits assumed)": "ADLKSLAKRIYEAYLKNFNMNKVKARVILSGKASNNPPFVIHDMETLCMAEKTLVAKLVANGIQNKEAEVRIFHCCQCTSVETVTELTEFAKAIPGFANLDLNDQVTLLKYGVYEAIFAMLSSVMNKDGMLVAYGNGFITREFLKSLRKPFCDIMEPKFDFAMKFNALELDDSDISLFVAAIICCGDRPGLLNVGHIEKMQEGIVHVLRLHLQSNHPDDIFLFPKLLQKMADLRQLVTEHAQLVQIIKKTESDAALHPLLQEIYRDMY", "assay": "PPAR cotransfection (transactivation) assay in CV-1 cells, GAL4 chimeric system", "assay_type": "cell-based", "experimental": "(§1) DNA-dependent binding is carried out using SPA technology with PPAR receptors. Tritium-labeled PPARα agonists are used as radioligands for generating displacement curves and IC50 values with compounds of the invention. Cotransfection assays are carried out in CV-1 cells. The reporter plasmid contained an acylCoA oxidase (AOX) PPRE and TK promoter upstream of the luciferase reporter cDNA. Appropriate PPARs are constitutively expressed using plasmids containing the CMV promoter. For PPARα, interference by endogenous PPARγ in CV-1 cells is an issue. In order to eliminate such interference, a GAL4 chimeric system is used in which the DNA binding domain of the transfected PPAR is replaced by that of GAL4, and the GAL4 response element is utilized in place of the AOX PPRE. Cotransfection efficacy is determined relative to PPAR agonist reference molecules. Efficacies are determined by computer fit to a concentration-response curve, or in some cases at a single high concentration of agonist (10 μM).\n(§2) These studies are carried out to evaluate the ability of compounds of the invention to bind to and/or activate various nuclear transcription factors, particularly huPPARδ (“hu” indicates “human”). These studies provide in vitro data concerning efficacy and selectivity of compounds of the invention."}, "[2]": {"target": "T2, PPARγ (Homo sapiens, UniProt P37231)", "T2 construct": "expressed in transfected cells; host or cells: CV-1 cells", "T2 sequence (P37231 1-505)": "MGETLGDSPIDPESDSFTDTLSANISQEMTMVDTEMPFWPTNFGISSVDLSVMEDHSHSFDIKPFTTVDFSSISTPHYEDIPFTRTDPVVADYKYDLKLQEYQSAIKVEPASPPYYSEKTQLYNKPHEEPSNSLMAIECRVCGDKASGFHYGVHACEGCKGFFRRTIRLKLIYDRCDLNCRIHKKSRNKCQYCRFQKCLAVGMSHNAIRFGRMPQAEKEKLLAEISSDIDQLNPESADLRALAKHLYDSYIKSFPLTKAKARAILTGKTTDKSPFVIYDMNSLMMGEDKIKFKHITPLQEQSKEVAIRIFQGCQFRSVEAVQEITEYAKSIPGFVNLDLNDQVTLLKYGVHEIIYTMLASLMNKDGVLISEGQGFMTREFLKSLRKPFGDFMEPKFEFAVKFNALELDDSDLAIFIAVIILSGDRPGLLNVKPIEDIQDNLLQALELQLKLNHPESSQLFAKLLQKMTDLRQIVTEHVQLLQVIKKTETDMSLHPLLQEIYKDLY", "assay": "PPAR cotransfection (transactivation) assay in CV-1 cells", "assay_type": "cell-based", "experimental": "as §1, §2"}, "[3]": {"target": "T3, PPARδ (Homo sapiens, UniProt Q03181)", "T3 construct": "expressed in transfected cells; host or cells: CV-1 cells", "T3 sequence (Q03181 1-441)": "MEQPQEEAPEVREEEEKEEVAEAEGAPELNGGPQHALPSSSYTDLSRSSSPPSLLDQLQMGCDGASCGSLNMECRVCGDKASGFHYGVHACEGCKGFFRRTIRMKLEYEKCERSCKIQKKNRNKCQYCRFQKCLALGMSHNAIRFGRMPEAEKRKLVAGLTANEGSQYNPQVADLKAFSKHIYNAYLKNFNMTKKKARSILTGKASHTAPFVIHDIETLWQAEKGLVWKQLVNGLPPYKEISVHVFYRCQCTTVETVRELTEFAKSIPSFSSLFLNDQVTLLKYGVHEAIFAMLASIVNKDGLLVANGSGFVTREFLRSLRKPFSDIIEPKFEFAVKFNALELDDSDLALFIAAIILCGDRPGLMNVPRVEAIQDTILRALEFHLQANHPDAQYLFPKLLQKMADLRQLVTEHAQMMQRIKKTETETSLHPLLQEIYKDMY", "assay": "PPAR cotransfection (transactivation) assay in CV-1 cells", "assay_type": "cell-based", "experimental": "as §1, §2"}, "[4]": {"tested_on": "obese, non-diabetic rhesus monkeys", "assay": "Dyslipidemic rhesus monkey model, oral dose-escalation study for 28 days", "assay_type": "in vivo", "experimental": "The compound of Formula 1 was examined in a dyslipidemic rhesus monkey model. […] HDL cholesterol increased by more than 40% in the 3.0 mg/kg b.i.d. dose group. LDL cholesterol decreased by approximately 25% in the 9.0 mg/kg b.i.d dose group, and a dose-related effect on triglycerides yielded a maximum 53% reduction in the 9.0 mg/k.g b.i.d dose group."}}, "data": [{"smiles": "Cc1cc(SCc2cn(-c3ccc(C(F)(F)F)cc3)nc2C)ccc1OCC(=O)O", "note": "[Formula 1, {2-Methyl-4-[3-methyl-1-(4-trifluoromethyl-phenyl)-1H-pyrazol-4-ylmethylsulfanyl]-phenoxy}-acetic acid]", "values": [{"measurement": "EC50", "setting": "[1]", "result": 1800, "unit": "nM"}, {"measurement": "EC50", "setting": "[2]", "result": 2600, "unit": "nM"}, {"measurement": "EC50", "setting": "[3]", "result": 20, "unit": "nM"}, {"measurement": "C-reactive protein levels", "setting": "[4]; compared to pretreatment levels", "result": "reduced compared to pretreatment levels"}, {"measurement": "HDL-c change", "setting": "[4]; oral dose-escalation, 28 days, each dose", "result": "elevation of HDL-c with each dose"}, {"measurement": "HDL cholesterol increase", "setting": "[4]; oral, 3.0 mg/kg b.i.d. dose group", "result": "more than 40%"}, {"measurement": "LDL cholesterol decrease", "setting": "[4]; oral, 9.0 mg/kg b.i.d. dose group", "result": "approximately 25%"}, {"measurement": "triglycerides maximum reduction", "setting": "[4]; oral, 9.0 mg/kg b.i.d. dose group, dose-related effect", "result": 53, "unit": "%"}]}]}
